Data published in patent US11613531B2, “Inhibitors of RHO associated coiled-coil containing protein kinase” (Kadmon Corporation, LLC, priority 2017, dated 2023).
pIC50: −log10 of the molar value. Read-outs that look alike come from different tables or passages of the source.

What was measured:
[1] = target: Recombinant ROCK2 (amino acids 1-552) (Homo sapiens (Human), UniProt O75116); assay: Z′-Lyte kinase assay, ROCK2; type: biochemical; conditions: for inhibition at 3 µM: 3 μM compound; for inhibition at 0.5 µM: 0.5 μM compound
Chain of Recombinant ROCK2 (amino acids 1-552) (O75116 1-552): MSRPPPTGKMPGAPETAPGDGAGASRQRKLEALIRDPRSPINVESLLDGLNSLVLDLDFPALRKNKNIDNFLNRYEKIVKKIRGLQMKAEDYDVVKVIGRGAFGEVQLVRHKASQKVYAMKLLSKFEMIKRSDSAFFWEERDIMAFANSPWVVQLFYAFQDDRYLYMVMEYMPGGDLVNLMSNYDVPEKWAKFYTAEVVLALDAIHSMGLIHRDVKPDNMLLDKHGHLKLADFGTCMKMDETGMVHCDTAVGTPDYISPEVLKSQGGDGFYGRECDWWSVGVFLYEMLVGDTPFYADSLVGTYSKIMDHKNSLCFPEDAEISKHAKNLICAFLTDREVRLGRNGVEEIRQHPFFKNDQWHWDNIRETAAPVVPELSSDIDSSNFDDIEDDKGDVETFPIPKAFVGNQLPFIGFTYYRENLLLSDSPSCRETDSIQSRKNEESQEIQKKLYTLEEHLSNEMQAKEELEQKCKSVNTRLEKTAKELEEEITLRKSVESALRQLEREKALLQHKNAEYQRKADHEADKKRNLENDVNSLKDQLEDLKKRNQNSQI
Summary of the method: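 IC50s derive from nonlinear curve fits over a 9-point, 2-fold dilution series, with single-point inhibition at 1 μM expressed relative to DMSO. Activity of truncated human ROCK1 (residues 1-535) and ROCK2 (residues 1-552) measured with the Z′-Lyte kinase format.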

[2] = tested on: ppMlc (T18/S19) levels in A7R5 cells; assay: A7R5 in-cell ELISA (pMLC); type: cell-based, Rat; conditions: Rattus norvegicus, A7R5, A7R5 cells; for inhibition at 1 µM: 1 μM compound; for inhibition at 1 µM / inhibition at 10 µM: read-out: pMLC % inh A7R5 @ [conc]; for inhibition at 10 µM: 10 μM compound
Summary of the method: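 Cellular IC50 came from a nonlinear regression fit of ppMlc (T18/S19) signal, read by colorimetric in-cell ELISA on fixed cells. Rat A7R5 aortic smooth muscle cells had been exposed for 90 min to compounds in 9-point 2-fold serial dilution, 24 h after seeding.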

[3] = tested on: human ACTA2 gene promoter luciferase reporter in NIH3T3 cells; assay: NIH3T3 Acta2-promoter driven-luciferase assay; type: cell-based; conditions: NIH3T3, 24 h, read-out: NIH3T3 Acta2-luc, IC50
Experimental: NIH3T3 Cells Acta2-Promoter Driven-Luciferase Assay.
A NIH3T3 cell line stably expressing a luciferase reporter driven by the human ACTA2 gene promoter (−1000-1 bp) was established (NIH3T3-Acta2-luciferase). The cells were plated to confluence and treated with the test compounds plus TGFβ1 for 24 hr. Cells were then lysed and luciferase activity was measured using the LightSwitch luciferase kit from Active Motif.
(§1) In vitro activities for the compounds were measured with Z′-lyte kinase kit (ThermoFisher Scientific). The percent inhibition rate was calculated by normalizing the kinase activity value obtained with 1 μM compound treatment against DMSO control value and then applied to the formula, [1-(compound/DMSO)]×100%. IC50s were calculated using the nonlinear regression curve fit function of the GraphPad Prism software with kinase activities data measured with 9 points 2-fold serial dilution of compounds treatment. In cell pMLC IC50s were calculated with data obtained from A7R5 cell experiments. A7R5 cells were treated with 9 points 2-fold serial dilution of compounds and ppMlc (T18/S19) levels were determined to calculate cellular IC50 values of the compounds using the nonlinear regression curve fit function of the GraphPad Prism software. NIH3T3 cells stably expressing ACTA2-promoter-driven-luciferase were applied to measure ROCK compounds functional IC50s in cells. Cells were plated in 96 well plates to confluence and treated with 9 points serial dilution of compounds in combination with TGFβ1 for 24 hr. Luciferase activities were measured and compound's IC50s were calculated using the nonlinear regression curve fit function of the GraphPad Prism software.
ROCK inhibitors can be effectively rank ordered by ACTA2-promoter-driven-luciferase reporter cell assay. NIH3T3 cells stably expressing ACTA2-promoter-driven-luciferase were plated in 96 well plates to confluence and treated with 9 points serial dilution of compounds in combination with TGFβ1 for 24 hr. Luciferase activities were measured and compound's IC50s were calculated. By this assay multiple compounds of the invention gave IC50s under 200 nM.

[4] = target: Recombinant ROCK1 (amino acids 1-535) (Homo sapiens (Human), UniProt Q13464); assay: Z′-Lyte kinase assay, ROCK1; type: biochemical; conditions: for inhibition at 3 µM: 3 μM compound; for inhibition at 3 µM / inhibition at 0.5 µM: read-out: ROCK1 % inh. @ [conc]; for pIC50: 9 points 2-fold serial dilution; for inhibition at 0.5 µM: 0.5 μM compound
Chain of Recombinant ROCK1 (amino acids 1-535) (Q13464 1-535): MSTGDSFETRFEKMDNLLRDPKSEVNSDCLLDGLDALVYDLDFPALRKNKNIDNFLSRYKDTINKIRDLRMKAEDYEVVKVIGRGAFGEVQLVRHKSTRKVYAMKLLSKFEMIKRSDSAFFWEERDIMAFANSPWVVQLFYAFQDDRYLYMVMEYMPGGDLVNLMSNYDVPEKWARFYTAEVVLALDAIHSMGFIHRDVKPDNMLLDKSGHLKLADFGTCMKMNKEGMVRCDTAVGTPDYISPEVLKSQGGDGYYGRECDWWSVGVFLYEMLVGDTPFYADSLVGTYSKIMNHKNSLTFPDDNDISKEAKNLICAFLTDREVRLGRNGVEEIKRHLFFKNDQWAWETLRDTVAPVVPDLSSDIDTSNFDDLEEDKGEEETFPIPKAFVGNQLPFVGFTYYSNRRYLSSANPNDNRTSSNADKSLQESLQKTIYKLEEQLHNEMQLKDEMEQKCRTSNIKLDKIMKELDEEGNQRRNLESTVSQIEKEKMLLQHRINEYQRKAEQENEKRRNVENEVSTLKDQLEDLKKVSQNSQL
Experimental: Determination of Compound's ROCK Inhibitory Activity In Vitro (Z'Lyte Assay).
Recombinant ROCK1 (amino acids 1-535) and ROCK2 (amino acids 1-552) proteins were purchased from ThermoFisher Scientific. Compound's activities were measured by Z′-lyte kinase kit (ThermoFisher Scientific) and IC50 was calculated
as §1

[5] = 9 points 2-fold serial dilution
[6] = NIH3T3 cells, plus TGFβ1 for 24 hr
[7] = read-out: ROCK2 % inh. @ [conc]

Compound | pIC50 [1, 5] | IC50 ([2]; ppMlc (T18/S19)) [nM] | inhibition at 3 µM [4] [%] | pIC50 [4] | inhibition at 3 µM [1, 7] [%] | inhibition at 10 µM [2] [%] | other results
Fc1cnc(N2C3CCC2CNC3)nc1Nc1ccc2[nH]ncc2c1 [Example 221, N-(2-(3,8-diazabicyclo[3.2.1]octan-8-yl)-5-fluoropyrimidin-4-yl)-1H-indazol-5-amine] | 8.43 | 50 |  |  |  |  | inhibition at 1 µM [2]: 39.6%; pIC50 [3, 6]: 6.61
c1cc2[nH]ncc2cc1Nc1nc(N2C3CCC2CNC3)ncc1C1CC1 [Example 309, N-(2-(3,8-diazabicyclo[3.2.1]octan-8-yl)-5-cyclopropylpyrimidin-4-yl)-1H-indazol-5-amine] |  |  |  |  |  |  | pIC50 [1]: 6.93; IC50 [2]: 917 nM; pIC50 ([3]; with TGFβ1, 24 hr): 5.48
Clc1cnc(N2C3CNCC2C3)nc1Nc1ccc2[nH]ncc2c1 [Example 222, N-(2-(3,6-diazabicyclo[3.1.1]heptan-6-yl)-5-chloropyrimidin-4-yl)-1H-indazol-5-amine] |  |  |  |  |  |  | pIC50 [1]: 8.31; inhibition at 1 µM ([1]; 1 μM compound, read-out: ROCK2 % inh. @ [conc]): 102%; IC50 [2]: 122 nM; inhibition at 1 µM [2]: 58.2%; pIC50 ([3]; with TGFβ1, 24 hr): 6.28
Cc1c(C#N)nc(N2C3CCC2CNC3)nc1Nc1ccc2[nH]ncc2c1 [Example 333, 6-((1H-indazol-5-yl)amino)-2-(3,8-diazabicyclo[3.2.1]octan-8-yl)-5-methylpyrimidine-4-carbonitrile] |  |  |  |  |  |  | pIC50 [1]: 7.36; IC50 [2]: 577 nM; pIC50 ([3]; with TGFβ1, 24 hr): 5.80
c1cc(-c2ccc(Nc3nc(N4C5CCC4CNC5)nc4c3COCC4)cc2)ccn1 [Example 37, 2-(3,8-diazabicyclo[3.2.1]octan-8-yl)-N-(4-(pyridin-4-yl)phenyl)-7,8-dihydro-5H-pyrano[4,3-d]pyrimidin-4-amine] |  |  |  |  |  |  | IC50 [2]: 7060 nM; pIC50 ([3]; with TGFβ1, 24 hr): < 5.00
CN(C)c1cc(Nc2cc3cn[nH]c3cc2F)nc(N2C3CCC2CNC3)n1 [Example 331, 2-(3,8-diazabicyclo[3.2.1]octan-8-yl)-N4-(6-fluoro-1H-indazol-5-yl)-N6,N6-dimethylpyrimidine-4,6-diamine] |  |  |  |  |  |  | pIC50 [1]: 8.23; pIC50 ([3]; with TGFβ1, 24 hr): 6.50
Cc1cnc(N2CCNC(C(C)C)C2)nc1Nc1ccc2[nH]ncc2c1 (stereo not drawn) [Example 101, N-(2-(3-isopropylpiperazin-1-yl)-5-methylpyrimidin-4-yl)-1H-indazol-5-amine] |  |  |  |  |  | 19.2 | pIC50 [3, 6]: 5.12
CNc1cc(Nc2ccc3[nH]ncc3c2)nc(N2C3CCC2CNC3)n1 [Example 329, 2-(3,8-diazabicyclo[3.2.1]octan-8-yl)-N4-(1H-indazol-5-yl)-N6-methylpyrimidine-4,6-diamine] |  |  |  |  |  |  | pIC50 [1]: 8.74; pIC50 ([3]; with TGFβ1, 24 hr): 7.05
c1ccc(C2CN(c3nccc(Nc4ccc5[nH]ncc5c4)n3)CCCN2)cc1 (stereo not drawn) [Example 64, N-(2-(3-phenyl-1,4-diazepan-1-yl)pyrimidin-4-yl)-1H-indazol-5-amine] | 6.62 | 1040 |  | 6.49 |  | 63.9 | 
CN1CCc2c(nc(N3C4CNCC3C4)nc2Nc2ccc3[nH]ncc3c2)C1 [Example 313, 2-(3,6-diazabicyclo[3.1.1]heptan-6-yl)-N-(1H-indazol-5-yl)-7-methyl-5,6,7,8-tetrahydropyrido[3,4-d]pyrimidin-4-amine] |  |  |  |  |  |  | inhibition at 0.5 µM [4]: 94%; pIC50 [1]: 7.85; inhibition at 0.5 µM [1, 7]: 99%; IC50 [2]: 3030 nM
c1cc2[nH]ncc2cc1Nc1nc(N2CC3CCC(C2)N3)nc2c1COC2 [Example 39, 2-(3,8-diazabicyclo[3.2.1]octan-3-yl)-N-(1H-indazol-5-yl)-5,7-dihydrofuro[3,4-d]pyrimidin-4-amine] |  |  |  |  |  |  | inhibition at 0.5 µM [4]: 67%; inhibition at 0.5 µM [1, 7]: 64%; inhibition at 1 µM [2]: 6.6%
c1cc2[nH]ncc2cc1Nc1nc(N2CC3CC2CN3)nc2c1COC2 (stereo not drawn) [Example 284, 2-(2,5-diazabicyclo[2.2.1]heptan-2-yl)-N-(1H-indazol-5-yl)-5,7-dihydrofuro[3,4-d]pyrimidin-4-amine] |  |  |  |  |  |  | inhibition at 0.5 µM [4]: 25%; inhibition at 0.5 µM [1, 7]: 30%; inhibition at 1 µM [2]: 24.1%

Now from value to compound, other results behind:

pIC50 [1, 5] | IC50 ([2]; ppMlc (T18/S19)) [nM] | inhibition at 3 µM [4] [%] | pIC50 [4] | inhibition at 3 µM [1, 7] [%] | Compound | inhibition at 10 µM [2] [%] | other results
6.75 | 1300 | 100 | 6.75 | 100 | CCC1CN(c2nccc(Nc3ccc4[nH]ncc4c3)n2)CCCN1 (stereo not drawn) [Example 62, N-(2-(3-ethyl-1,4-diazepan-1-yl)pyrimidin-4-yl)-1H-indazol-5-amine] |  | 
6.04 | 4780 | 100 | 6.17 | 100 | CC(C)C1CN(c2nccc(Nc3ccc4[nH]ncc4c3)n2)CCN1 (stereo not drawn) [Example 59, N-(2-(3-isopropylpiperazin-1-yl)pyrimidin-4-yl)-1H-indazol-5-amine] |  | 
< 6.00 |  |  | < 6.00 |  | CCC1CCN(c2nccc(Nc3ccc(-c4ccncc4)cc3)n2)CCN1 (stereo not drawn) [Example 249, 2-(5-ethyl-1,4-diazepan-1-yl)-N-(4-(pyridin-4-yl)phenyl)pyrimidin-4-amine] | 33.6 | 
 |  | 89.1 |  | 85.6 | c1cc(-c2ccc(Nc3ccnc(N4CCCNCC4)n3)cc2)ccn1 [Example 273, 2-(1,4-diazepan-1-yl)-N-(4-(pyridin-4-yl)phenyl)pyrimidin-4-amine] | 44.1 | 
6.35 | 3440 | 100 | 6.18 | 100 | CCC1CCN(c2nccc(Nc3ccc4[nH]ncc4c3)n2)CCN1 (stereo not drawn) [Example 60, N-(2-(5-ethyl-1,4-diazepan-1-yl)pyrimidin-4-yl)-1H-indazol-5-amine] |  | 
7.66 | 129 | 100 | 7.12 | 104 | CC1CNCCN1c1nccc(Nc2ccc3[nH]ncc3c2)n1 (stereo not drawn) [Example 232, N-(2-(2-methylpiperazin-1-yl)pyrimidin-4-yl)-1H-indazol-5-amine] | 93 | 
7.51 | 1120 |  |  |  | c1cc2[nH]ncc2cc1Nc1nc(N2CCCNCC2)nc2c1COC2 [Example 11, 2-(1,4-diazepan-1-yl)-N-(1H-indazol-5-yl)-5,7-dihydrofuro[3,4-d]pyrimidin-4-amine] | 89 | inhibition at 0.5 µM [4]: 76%; inhibition at 0.5 µM [1, 7]: 93%
7.01 | 532 | 80.9 |  | 98.3 | CC1CN(c2nccc(Nc3ccc4[nH]ncc4c3)n2)CCN1 (stereo not drawn) [Example 225, N-(2-(3-methylpiperazin-1-yl)pyrimidin-4-yl)-1H-indazol-5-amine] | 78 | 
< 6.00 | 8170 | 100 | < 6.00 | 100 | CC(C)C1CCN(c2nccc(Nc3ccc4[nH]ncc4c3)n2)CCN1 (stereo not drawn) [Example 61, N-(2-(5-isopropyl-1,4-diazepan-1-yl)pyrimidin-4-yl)-1H-indazol-5-amine] |  | 
6.69 |  |  | 6.48 |  | c1ccc(C2CN(c3nccc(Nc4ccc(-c5ccncc5)cc4)n3)CCCN2)cc1 (stereo not drawn) [Example 18, 2-(3-phenyl-1,4-diazepan-1-yl)-N-(4-(pyridin-4-yl)phenyl)pyrimidin-4-amine] | 11 | 
 |  | 88.5 |  | 85.8 | c1ccc2c(Nc3ccc(-c4ccncc4)cc3)nc(N3CCCNCC3)nc2c1 [Example 272, 2-(1,4-diazepan-1-yl)-N-(4-(pyridin-4-yl)phenyl)quinazolin-4-amine] | 53.3 | 
< 6.00 | 8220 | 100 | < 6.00 | 100 | Cc1cc(Nc2ccc(-c3ccncc3)cc2)nc(N2CCNC(C)CC2)n1 (stereo not drawn) [Example 245, 6-methyl-2-(5-methyl-1,4-diazepan-1-yl)-N-(4-(pyridin-4-yl)phenyl)pyrimidin-4-amine] |  | 
